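How tested: cells in 96-well plates exposed to compound for 48 hours at five concentrations. TGI: concentration producing complete growth inhibition.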

Our source for the TGI values is PubChem BioAssay (NCI).

What all share (test): DTP human tumour cell line panel, 48 h
Test [1] concerns M14 melanoma.
Test [2] relates to PC-3 prostate.
The test system of test [3] is UACC-257 melanoma.
Test [4] deals with HCT-116 colon.
Test [5] has as its system NCI/ADR-RES ovarian.
Test [6] relates to KM12 colon.
The test system of test [7] is HS 578T breast.
In test [8] the test system is SR leukemia.
Test [9] relates to A549 NSCLC.
The test system of test [10] is NCI-H23 lung.
The test system of test [11] is OVCAR-3 ovarian.
Test [12] deals with NCI-H522 lung.
The subject of test [13] is LOX IMVI melanoma.
The test system of test [14] is SNB-75 CNS.
Test [15] concerns COLO 205 colon.
Test [16] concerns MALME-3M melanoma.

Usually TGI stands for the concentration at which net growth stops. Low readings indicate more potent growth arrest, high ones less potent growth arrest. With `O=c1oc2ccc3ccccc3c2cc1-c1nnc(Nc2ccccc2)s1`, the TGI in [1] was over 100 µM; in test [2] it was 36.6 µM; in [3], over 100 µM; in [4], 52.4 µM; in test [5] it was over 100 µM; in test [6], over 100 µM. Besides, the TGI in test [7] is over 100 µM; in [8] it was 81.7 µM; in test [9], 59 µM; in test [10], 98.3 µM; in [11], 31.4 µM; in test [12] it was 69.3 µM.

With `O=C(Nc1ccc(C(F)(F)F)cc1)NC(F)(F)F`, the TGI in test [1], in test [2], in test [3], in test [4], in test [13] and in test [5] was over 100 µM in each case. Besides, the TGI in test [7], in test [8], in [14], in [9], in test [10] and in test [15] was over 100 µM each time.

Take `Oc1c(Br)cc(/C=C/c2ccnc(/C=C/c3cc(Br)c(O)c(Br)c3)c2)cc1Br`: the TGI in [1] was 54.9 µM; in test [2], 39 µM; in test [3], 66.7 µM; in test [4], 30.7 µM; in test [13], over 100 µM; in test [5] it was 92.6 µM. Further, the TGI in [6] was 38.7 µM; in [7], over 100 µM; in test [8], 45.9 µM; in [14] it was 58.5 µM; in test [9] it was 77 µM; in test [11], 53.1 µM. Moreover, the TGI in test [15] is 59.9 µM.

Consider `OC12c3ccccc3C1CCCCC2N1CCCC1` (stereo not given), for which the TGI in [1], in test [3], in test [4], in test [13], in test [6] and in [8] was over 100 µM throughout. Also, the TGI in test [14], in test [9], in [10], in test [12], in test [15] and in test [16] was over 100 µM each time.

In the case of `CC(C)CC(NC(=O)C(C)(CI)Cc1ccccc1)C(=O)Nc1ccccc1` (stereo not given), the TGI in test [1], in [2], in test [3], in [4], in [13] and in test [5] was over 100 µM throughout. For the same compound, the TGI in test [6], in [8], in [14], in test [9], in [10] and in [11] was over 100 µM throughout. The TGI in test [12], in test [15] and in [16] was over 100 µM throughout.

On to `C=CCOC(=O)CC[C@H](NC(=O)[C@@H](CCC(F)(F)F)Cc1ccc(O)cc1)C(=O)OCC=C`, for which the TGI in test [1] was 42.6 µM; in test [4], over 100 µM; in test [13], over 100 µM; in test [5], over 100 µM; in [6], over 100 µM; in test [7], over 100 µM. The TGI in test [8] was over 100 µM; in test [14], 77.2 µM; in test [9], over 100 µM; in test [10], over 100 µM; in test [12], 52.7 µM; in [15], 40.7 µM. For the same compound, the TGI in test [16] worked out at 39.1 µM.

As to `CC(C)(O)C(O)COc1c2c(cc3oc(=O)ccc13)OCO2` (stereo not given), the TGI in [1], in [3], in test [4], in [13], in test [6] and in test [8] was over 100 µM in each case. Besides, the TGI in [14], in [9], in test [10], in test [11], in [12] and in [15] was over 100 µM in each case. Moreover, the TGI in [16] is over 100 µM.

Consider `COc1cc(/C=C2\C(=O)N(C(=O)Cc3ccccc3)N=C2C)cc(OC)c1OC`, for which the TGI in test [1], in test [3], in test [4], in test [13], in test [6] and in test [8] was over 100 µM throughout. Besides, the TGI in test [14], in test [9], in test [10], in test [11], in [12] and in [15] was over 100 µM in each case. The same compound showed a TGI in [16] of over 100 µM.

Turning to `N#Cc1ccc(C(O)C(F)(F)c2nc3ccccc3o2)cc1` (stereo not given), the TGI in [1], in [2], in [3], in test [4], in test [13] and in [5] was over 100 µM throughout. Besides, the TGI in test [6], in test [7], in [8], in test [14], in [10] and in [15] was over 100 µM throughout.

For `COC(=O)c1c([N+](=O)[O-])ncn1[C@H]1OC[C@@H](OC(C)=O)[C@@H](OC(C)=O)[C@@H]1OC(C)=O`, the TGI in test [1], in test [2], in test [3], in test [4], in [13] and in test [5] was over 100 µM throughout. Also, the TGI in [6], in test [8], in test [14], in test [9], in [10] and in test [11] was over 100 µM each time. Also, the TGI in test [12], in test [15] and in test [16] was over 100 µM each time.
